ChEMBL document CHEMBL6134849, “A Water-Soluble Aggregation-Induced Emission Photosensitizer with Intrinsic Antibacterial Activity as an Antiplanktonic and Antibiofilm Therapeutic Agent” (J Med Chem, 2025)
The source made the active and inactive calls. The rule behind the calls is not given here.

Tests used:
Cell membrane [1] = experiment: Induction of cell membrane depolarization in Staphylococcus aureus assessed as increase in fluorescence intensity in absence of light irradiation by Disc3(5) dye based fluorescence assay; type: subcellular
Staphylococcus aureus [2] = experiment: Downregulation of serS expression level in Staphylococcus aureus at 6.25 uM incubated for 1 hr in absence of light irradiation; type: functional
Staphylococcus aureus [3] = experiment: Downregulation of ftsZ expression level in Staphylococcus aureus at 6.25 uM incubated for 1 hr in absence of light irradiation; type: functional
Pseudomonas aeruginosa [4] = experiment: Antibiofilm activity against Pseudomonas aeruginosa assessed as bacterial eradication by measuring green fluorescence signal at 10 uM incubated for 1 hrs in presence of light irradiation by calcein-AM fluorescence dye based analysis; type: functional, organism-based
Staphylococcus aureus [5] = experiment: (§1) In vivo antibacterial activity against methicillin-resistant Staphylococcus aureus ATCC 43300 infected in female BALB/c mouse skin wound infection model assessed as collagen deposition in wound at 90 uM pre-infected with bacteria for 24 hrs followed by topical compound addition for 10 mins in presence of 600 nm 60 mW/cm2 light irradiation for 15 mins and measured on day 6 by Masson trichrome staining based analysis; type: functional, organism-based; conditions: time 6.0 day
Staphylococcus aureus [6] = experiment: Downregulation of murC expression level in Staphylococcus aureus at 6.25 uM incubated for 1 hr in absence of light irradiation; type: functional
Staphylococcus aureus [7] = experiment: Downregulation of murI expression level in Staphylococcus aureus at 6.25 uM incubated for 1 hr in absence of light irradiation; type: functional
Staphylococcus aureus [8] = experiment: Downregulation of ssl7 protein expression in Staphylococcus aureus under light irradiation; type: functional
[9] = Induction of type-II ROS generation in PBS assessed as increase in singlet oxygen by measuring increase in SOSG fluorescence intensity at 10 uM irradiated with 660 nm 60 mW/cm2 light for 15 mins by SOSG probe based plate reader analysis; type: functional
Staphylococcus aureus [10] = experiment: Downregulation of cell wall organization related proteins in Staphylococcus aureus under light irradiation; type: functional, organism-based
Staphylococcus aureus [11] = experiment: Downregulation of hlgC protein expression in Staphylococcus aureus under light irradiation; type: functional
Staphylococcus aureus [12] = experiment: Downregulation of glmM expression level in Staphylococcus aureus at 6.25 uM incubated for 1 hr in absence of light irradiation; type: functional
Staphylococcus aureus [13] = experiment: Downregulation of engB expression level in Staphylococcus aureus at 6.25 uM incubated for 1 hr in absence of light irradiation; type: functional
Staphylococcus aureus [14] = experiment: Downregulation of thrS expression level in Staphylococcus aureus at 6.25 uM incubated for 1 hr in absence of light irradiation; type: functional
[15] = Induction of type-I ROS generation in PBS assessed as increase in nonspecific ROS by measuring increase in DHR123 fluorescence intensity at 10 uM irradiated with 660 nm 60 mW/cm2 light for 15 mins by DHR123 probe based plate reader analysis; type: functional
Staphylococcus aureus [16] = experiment: Downregulation of uppP expression level in Staphylococcus aureus at 6.25 uM incubated for 1 hr in absence of light irradiation; type: functional
Staphylococcus aureus [17] = experiment: Downregulation of sle1 expression level in Staphylococcus aureus at 6.25 uM incubated for 1 hr in absence of light irradiation; type: functional
Staphylococcus aureus [18] = experiment: as §1, with “reduction in inflammatory cell infiltration” for “collagen deposition”; type: functional, organism-based; conditions: time 6.0 day
Staphylococcus aureus [19] = experiment: Downregulation of ddl expression level in Staphylococcus aureus at 6.25 uM incubated for 1 hr in absence of light irradiation; type: functional
Cell membrane [20] = experiment: Induction of cell membrane damage in Staphylococcus aureus assessed as RNA leakage at 10 uM preincubated with compound for 20 mins followed by 600 nm light irradiation for 45 min by absorption based plate reader analysis; type: subcellular; conditions: time 65.0 min
Pseudomonas aeruginosa [21] = experiment: Selective drug uptake in Pseudomonas aeruginosa co-cultured with human HFF-1 cells by measuring fluorescence signal at 10 uM incubated for 20 mins; type: ADME, organism-based; conditions: hff-1, 20 min
Staphylococcus aureus [22] = experiment: Downregulation of ftsA expression level in Staphylococcus aureus at 6.25 uM incubated for 1 hr in absence of light irradiation; type: functional
Staphylococcus aureus [23] = experiment: Downregulation of murG expression level in Staphylococcus aureus at 6.25 uM incubated for 1 hr in absence of light irradiation; type: functional
Staphylococcus aureus [24] = experiment: Downregulation of alr1 expression level in Staphylococcus aureus at 6.25 uM incubated for 1 hr in absence of light irradiation; type: functional
[25] = Induction of type-II ROS generation in PBS assessed as increase in nonspecific ROS by measuring increase in DHR123 fluorescence intensity at 10 uM irradiated with 660 nm 60 mW/cm2 light for 15 mins by DHR123 probe based plate reader analysis; type: functional
Cell membrane [26] = experiment: Induction of cell membrane damage in Pseudomonas aeruginosa assessed as bacterial cell collapse at 10 uM preincubated with compound for 20 mins followed by 600 nm light irradiation for 45 min by SEM analysis; type: subcellular; conditions: time 65.0 min
Staphylococcus aureus [27] = experiment: Downregulation of lytH expression level in Staphylococcus aureus at 6.25 uM incubated for 1 hr in absence of light irradiation; type: functional
Staphylococcus aureus [28] = experiment: Downregulation of femB expression level in Staphylococcus aureus at 6.25 uM incubated for 1 hr in absence of light irradiation; type: functional
Staphylococcus aureus [29] = experiment: Antibiofilm activity against Staphylococcus aureus assessed as mature biofilm eradication incubated for 24 hrs under dark condition in absence of light irradiation by crystal violet staining based analysis; type: functional, organism-based
Cell membrane [30] = experiment: Induction of cell membrane damage in Staphylococcus aureus assessed as bacterial cell collapse at 10 uM preincubated with compound for 20 mins followed by 600 nm light irradiation for 45 min by SEM analysis; type: subcellular; conditions: time 65.0 min
Staphylococcus aureus [31] = experiment: Downregulation of gltX expression level in Staphylococcus aureus at 6.25 uM incubated for 1 hr in absence of light irradiation; type: functional
Staphylococcus aureus [32] = experiment: Downregulation of murF expression level in Staphylococcus aureus at 6.25 uM incubated for 1 hr in absence of light irradiation; type: functional
Staphylococcus aureus [33] = experiment: In vivo antibacterial activity against methicillin-resistant Staphylococcus aureus ATCC 43300 infected in female BALB/c mouse skin wound infection model assessed as reduction in wound area at 90 uM pre-infected with bacteria for 24 hrs followed by topical compound addition for 10 mins in presence of 600 nm 60 mW/cm2 light irradiation for 15 mins and measured on day 4; type: functional, organism-based; conditions: time 4.0 day
Staphylococcus aureus [34] = experiment: Antibacterial activity against Staphylococcus aureus at 6.25 uM measured within 2 hrs in absence of light irradiation by time-kill kinetics assay relative to control; type: functional

SMILES: C#CCC[n+]1c(/C=C/c2ccc(-c3ccc(N(c4ccc(OCCC[N+](C)(C)C)cc4)c4ccc(OCCC[N+](C)(C)C)cc4)cc3)s2)sc2ccccc21.[Br-].[Br-].[Br-]
- Activity (Cell membrane [1]): Dose-dependent-effect
- Activity (Staphylococcus aureus [2]): Active
- Activity (Staphylococcus aureus [3]): Active
- Activity (Pseudomonas aeruginosa [4]): Active
- Activity (Staphylococcus aureus [5]): Active
- Activity (Staphylococcus aureus [6]): Active
- Activity (Staphylococcus aureus [7]): Active
- Activity (Staphylococcus aureus [8]): Active
- Activity [9]: Active
- Activity (Staphylococcus aureus [10]): Active
- Activity (Staphylococcus aureus [11]): Active
- Activity (Staphylococcus aureus [12]): Active
- Activity (Staphylococcus aureus [13]): Active
- Activity (Staphylococcus aureus [14]): Active
- Activity [15]: Active
- Activity (Staphylococcus aureus [16]): Active
- Activity (Staphylococcus aureus [17]): Active
- Activity (Staphylococcus aureus [18]): Active
- Activity (Staphylococcus aureus [19]): Active
- Activity (Cell membrane [20]): Active
- Drug uptake (Pseudomonas aeruginosa [21]): Active
- Activity (Staphylococcus aureus [22]): Active
- Activity (Staphylococcus aureus [23]): Active
- Activity (Staphylococcus aureus [24]): Active
- Activity [25]: Active
- Activity (Cell membrane [26]): Active
- Activity (Staphylococcus aureus [27]): Active
- Activity (Staphylococcus aureus [28]): Active
- Activity (Staphylococcus aureus [29]): Active
- Activity (Cell membrane [30]): Active
- Activity (Staphylococcus aureus [31]): Active
- Activity (Staphylococcus aureus [32]): Active
- Activity (Staphylococcus aureus [33]): Active
- Activity (Staphylococcus aureus [34]): 100%
